Values quoted from earlier work in US12378579B2, “Method to produce the anti-microbial diterpenoid leubethanol and related serrulatane-type diterpenes” (priority 2020, dated 2025).

Tested on: multi-drug-resistant tuberculosis
Conditions: pure compound from Leucophyllum frutescens; background statement

For `CC(C)=CCC[C@H](C)[C@@H]1CC[C@@H](C)c2c(O)cc(C)cc21` [leubethanol], the “activity against multi-drug resistant tuberculosis” value is given as “demonstrated activity”.
